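Compound exposure: 48 hours, 5 concentrations, 96-well plates. At the GI50, growth is halved.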 Activity calls are given as the source filed them. Cut-off read from the data, not from the text of the source: active = GI50 up to about 1.1 µM and inactive = higher.
Tests used:
Test in all cases: NCI-60 cell line screen, 48 h
[1] = system: DU-145
[2] = system: MDA-N
[3] = system: OVCAR-4
[4] = system: SF-268
[5] = system: LOX IMVI
[6] = system: OVCAR-8
[7] = system: UACC-62
[8] = system: HL-60
[9] = system: SNB-75
[10] = system: RPMI-8226
[11] = system: CCRF-CEM
[12] = system: HCC 2998
[13] = system: A498
[14] = system: SF-539
[15] = system: NCI-H522
[16] = system: CAKI-1
[17] = system: HOP-92
[18] = system: NCI/ADR-RES
[19] = system: SK-OV-3
[20] = system: Hs-578T

Row | SMILES | GI50 [1] | GI50 [2] | GI50 [3] | GI50 [4] | GI50 [5] | GI50 [6] | GI50 [7] | GI50 [8] | GI50 [9] | GI50 [10] | GI50 [11] | GI50 [12] | GI50 [13] | GI50 [14] | GI50 [15] | GI50 [16] | GI50 [17] | GI50 [18] | GI50 [19] | GI50 [20]
1 | CCOC(=O)/C=C/c1cccc(F)c1 | > 100 µM (inactive) | > 100 µM (inactive) | > 100 µM (inactive) | > 100 µM (inactive) | > 100 µM (inactive) | > 100 µM (inactive) | > 100 µM (inactive) | > 100 µM (inactive) | > 100 µM (inactive) | > 100 µM (inactive) | > 100 µM (inactive) | > 100 µM (inactive) | > 100 µM (inactive) | > 100 µM (inactive) | > 100 µM (inactive) | > 100 µM (inactive) | > 100 µM (inactive) | > 100 µM (inactive) |  | 
2 | N#C/C(C(=O)Nc1ccccc1)=C(/N)N1CCCCC1 | > 100 µM (inactive) | > 100 µM (inactive) |  |  | > 100 µM (inactive) | > 100 µM (inactive) | 95.7 µM (inactive) |  | > 100 µM (inactive) | > 100 µM (inactive) | > 100 µM (inactive) | > 100 µM (inactive) |  | > 100 µM (inactive) |  | > 100 µM (inactive) | > 100 µM (inactive) | > 100 µM (inactive) | > 100 µM (inactive) | 
3 | COc1ccc(-n2cnn3c(=O)c4cn[nH]c4nc23)cc1 | > 10 µM (inactive) |  | > 10 µM (inactive) | > 10 µM (inactive) | > 10 µM (inactive) | > 10 µM (inactive) |  | > 10 µM (inactive) | > 10 µM (inactive) |  | > 10 µM (inactive) | > 10 µM (inactive) |  | > 10 µM (inactive) | > 10 µM (inactive) |  | 0.748 µM (active) |  | 1.49 µM (inactive) | > 10 µM (inactive)
4 | O=c1c2ccccc2n2c(-c3ccc(O)cc3)nnc2n1-c1ccccc1 | 21.9 µM (inactive) | 15.7 µM (inactive) | 20 µM (inactive) | 21.8 µM (inactive) | 29.4 µM (inactive) | 30.8 µM (inactive) | 19.6 µM (inactive) | 62.8 µM (inactive) | 18.7 µM (inactive) |  | 14.8 µM (inactive) | 49.1 µM (inactive) | 13 µM (inactive) | 18 µM (inactive) | 18.2 µM (inactive) | 29.6 µM (inactive) | 23.3 µM (inactive) | 21.5 µM (inactive) | 20.6 µM (inactive) | 
5 | O=C(NNc1nc(-c2ccccc2)cs1)C(F)(F)F | 53.1 µM (inactive) |  | > 100 µM (inactive) | 29.6 µM (inactive) | 57.7 µM (inactive) | 33.4 µM (inactive) | 58.7 µM (inactive) | 33.1 µM (inactive) | 19 µM (inactive) | 16.4 µM (inactive) | 24.9 µM (inactive) | 95.1 µM (inactive) | 37.1 µM (inactive) |  | 35.7 µM (inactive) | 45.8 µM (inactive) |  | 29.9 µM (inactive) | 61.1 µM (inactive) | 15.9 µM (inactive)
6 | CC1=C(C(=O)Nc2ccc([N+](=O)[O-])cc2)C(c2ccccc2F)C(C(=O)Nc2ccc([N+](=O)[O-])cc2)=C(C)N1 |  |  | 9.14 µM (inactive) | 21.2 µM (inactive) | 11 µM (inactive) | 21.7 µM (inactive) |  | 4.7 µM (inactive) | 13.9 µM (inactive) | 3.8 µM (inactive) | 7 µM (inactive) | 5.94 µM (inactive) | 5.48 µM (inactive) | 17.3 µM (inactive) | 8.2 µM (inactive) | 18.2 µM (inactive) | 4.45 µM (inactive) |  | 29.8 µM (inactive) | 
7 | CCOC(=O)C1=C(OC(OCC)C([Se]c2ccccc2)C(C)C)CCC1 (centres undefined) |  |  | 16.1 µM (inactive) | 4.73 µM (inactive) | 2.31 µM (inactive) | 14.1 µM (inactive) | 14.2 µM (inactive) | 3.24 µM (inactive) | 23 µM (inactive) | 10.1 µM (inactive) | 3.44 µM (inactive) | 36.8 µM (inactive) | 26.5 µM (inactive) | 12.3 µM (inactive) | 7.1 µM (inactive) | 43.5 µM (inactive) | 27.5 µM (inactive) |  | 81.7 µM (inactive) | 
8 | CC(=O)C1C(=O)C(=O)N(c2ccccc2C(C)C)C1=O (centres undefined) |  |  | > 100 µM (inactive) | > 100 µM (inactive) | > 100 µM (inactive) | > 100 µM (inactive) | > 100 µM (inactive) | > 100 µM (inactive) | > 100 µM (inactive) | > 100 µM (inactive) | > 100 µM (inactive) | > 100 µM (inactive) | > 100 µM (inactive) | > 100 µM (inactive) | > 100 µM (inactive) | > 100 µM (inactive) | > 100 µM (inactive) |  | > 100 µM (inactive) | 
9 | CC(C1=CC=C2[C@@H]3CCC4CC(N(C)C)CC[C@]4(C)C3CC[C@]12C)N(C)C=O (some centres undefined) |  |  | > 100 µM (inactive) | > 100 µM (inactive) | 25.7 µM (inactive) | > 100 µM (inactive) | > 100 µM (inactive) | > 100 µM (inactive) | 52.8 µM (inactive) | 78.3 µM (inactive) | > 100 µM (inactive) | > 100 µM (inactive) | 6.49 µM (inactive) | > 100 µM (inactive) | > 100 µM (inactive) | > 100 µM (inactive) | > 100 µM (inactive) |  | > 100 µM (inactive) | 

— ChEMBL document CHEMBL1201862, “PubChem BioAssay data set” (2004)
